IC50 data for 25 compounds are collected here from patent US20120264735A1 (priority 2009, published 2012).

SMILES strings stand for the structures.

T1 sequence (P08581 25-1390): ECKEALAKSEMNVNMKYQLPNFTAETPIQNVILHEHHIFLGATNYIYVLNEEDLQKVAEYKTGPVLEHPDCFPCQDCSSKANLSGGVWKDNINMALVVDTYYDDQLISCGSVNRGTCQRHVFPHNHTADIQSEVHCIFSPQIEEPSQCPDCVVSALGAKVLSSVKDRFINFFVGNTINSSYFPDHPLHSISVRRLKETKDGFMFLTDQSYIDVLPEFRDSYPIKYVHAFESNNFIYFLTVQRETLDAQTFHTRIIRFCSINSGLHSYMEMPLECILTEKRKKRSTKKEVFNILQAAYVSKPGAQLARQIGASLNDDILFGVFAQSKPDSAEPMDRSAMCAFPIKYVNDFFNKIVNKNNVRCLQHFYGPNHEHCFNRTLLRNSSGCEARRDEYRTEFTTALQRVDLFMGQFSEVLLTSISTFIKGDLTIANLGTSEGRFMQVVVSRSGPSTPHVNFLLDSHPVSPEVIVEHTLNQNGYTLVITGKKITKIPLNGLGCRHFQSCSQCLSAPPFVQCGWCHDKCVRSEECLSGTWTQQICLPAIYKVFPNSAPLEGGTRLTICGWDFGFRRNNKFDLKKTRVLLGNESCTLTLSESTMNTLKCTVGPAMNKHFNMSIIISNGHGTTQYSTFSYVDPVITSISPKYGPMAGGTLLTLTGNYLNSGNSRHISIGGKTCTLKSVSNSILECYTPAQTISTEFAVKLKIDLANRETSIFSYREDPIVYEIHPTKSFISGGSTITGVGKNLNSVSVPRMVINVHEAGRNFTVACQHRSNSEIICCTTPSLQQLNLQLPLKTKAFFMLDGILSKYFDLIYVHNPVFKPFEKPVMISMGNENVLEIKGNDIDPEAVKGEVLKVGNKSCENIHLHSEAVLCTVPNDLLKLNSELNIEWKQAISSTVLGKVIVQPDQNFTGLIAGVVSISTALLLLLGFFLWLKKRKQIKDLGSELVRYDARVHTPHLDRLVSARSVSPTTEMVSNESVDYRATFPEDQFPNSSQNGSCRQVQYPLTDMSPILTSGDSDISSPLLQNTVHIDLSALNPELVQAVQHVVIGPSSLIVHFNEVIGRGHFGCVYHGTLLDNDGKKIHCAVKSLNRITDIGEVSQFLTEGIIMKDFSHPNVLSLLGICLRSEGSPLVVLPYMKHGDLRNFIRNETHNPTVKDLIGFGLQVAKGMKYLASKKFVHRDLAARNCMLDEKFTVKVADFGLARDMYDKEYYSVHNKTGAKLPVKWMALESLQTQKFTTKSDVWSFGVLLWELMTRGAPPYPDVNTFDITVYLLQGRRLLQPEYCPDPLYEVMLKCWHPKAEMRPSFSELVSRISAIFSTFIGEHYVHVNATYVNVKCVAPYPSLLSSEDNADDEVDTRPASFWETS

The experiment concerns the target T1, c-Met kinase (recombinant c-Met) (Homo sapiens, UniProt P08581).
T1 construct: 0.27 nM recombinant c-Met
As to the kind of experiment: In vitro kinase assay I (homogeneous time-resolved fluorescence tyrosine kinase assay). In kind it is biochemical. How it is done:
The kinase activities of c-Met are measured using a modified version of the homogeneous-time-resolved tyrosine kinase assay described by Park et al. (1999, Anal. Biochem. 269:94-104).
The procedure for determining the potency of a compound to inhibit c-Met kinase comprises the following steps: • 1. Prepare 3-fold serial diluted compound solutions in 100% dimethyl sulfoxide (DMSO) at 20× of the desired final concentrations in a 384-well plate. • 2. Prepare a master reaction mix containing 6.67 mM MgCl2, 133.3 mM NaCl, 66.7 mM Tris-HCl (pH 7.4), 0.13 mg/ml BSA, 2.67 mM dithiothreitol, 0.27 nM recombinant c-Met and 666.7 nM biotinylated synthetic peptide substrate (biotin-ahx-EQEDEPEGDYFEWLE-CONH2) (SEQ.ID.NO.:1). • 3. In a black assay plate, add 1.5 μl of compound solution (or DMSO) and 22.5 μl of master reaction mix per well. Initiate the kinase reaction by adding 6 μl of 0.25 mM MgATP per well. Allow the reactions to proceed for 60 min at room temperature. The final conditions for the reaction are 0.2 nM c-Met, 0.5 μM substrate, 50 μM MgATP, 5 mM MgCl2, 100 mM NaCl, 2 mM DTT, 0.1 mg/ml BSA, 50 mM Tris (pH 7.4) and 5% DMSO. • 4. Stop the kinase reaction with 30 μl of Stop/Detection buffer containing 10 mM EDTA, 25 mM HEPES, 0.1% TRITON X-100, 0.750 nM Eu-chelate labeled anti-phosphotyrosine antibody PY20 (cat. #AD0067, PerkinElmer) and 50 μg/ml Streptavidin-allophycocyanin conjugate (cat. #PJ25S, Prozyme). • 5. Read HTRF signals on a Victor reader (PerkinElmer) in HTRF mode after 60-min incubation at room temperature in the dark. • 6. IC50 is determined by fitting the observed relationship between compound concentration and HTRF signal with a 4-parameter logistic equation. II. GTL-16 pY1349 Cell-Based Assay
In the case of `O=c1ccn(-c2ccc(F)c(F)c2)nc1Cc1cccc(-c2ncc(OC3CCOC3)cn2)c1` (racemic) [Example 327, rac-1-(3,4-difluorophenyl)-3-{3-[5-(tetrahydrofuran-3-yloxy)pyrimidin-2-yl]benzyl}pyridazin-4(1H)-one], the half-maximal inhibitory concentration (IC50) (usually the concentration at which inhibition is half-maximal) was less than 100 nM.
As for `O=c1ccn(-c2ccc(F)c(F)c2)nc1Cc1cccc(-c2ncc(OCC3CCOC3)cn2)c1` (racemic) [Example 328, rac-1-(3,4-difluorophenyl)-3-{3-[5-(tetrahydrofuran-3-ylmethoxy)pyrimidin-2-yl]benzyl}pyridazin-4(1H)-one], the 50% inhibitory concentration (IC50) is less than 100 nM.
Consider `CC(c1cccc(-c2ncc(OC3CCNCC3)cn2)c1)c1nn(-c2cnn(C)c2)ccc1=O` (racemic) [Example 334, rac-1-(1-Methyl-1H-pyrazol-4-yl)-3-(1-{3-[5-(piperidin-4-yloxy)pyrimidin-2-yl]phenyl}ethyl)pyridazin-4(1H)-one], for which the 50% inhibitory concentration (IC50) is less than 100 nM.
Next, `Cn1cc(-n2ccc(=O)c(Cc3cccc(-c4ncc(OCC(O)C(F)(F)F)cn4)c3)n2)cn1` (racemic) [Example 364, rac-1-(1-methyl-1H-pyrazol-4-yl)-3-{3-[5-(3,3,3-trifluoro-2-hydroxypropoxy)pyrimidin-2-yl]benzyl}pyridazin-4(1H)-one]: less than 100 nM.
With `CC(Oc1cnc(-c2cccc(Cc3nn(-c4cnn(C)c4)ccc3=O)c2)nc1)C(C)(C)O` (racemic) [Example 366, rac-3-{3-[5-(2-hydroxy-1,2-dimethylpropoxy)pyrimidin-2-yl]benzyl}-1-(1-methyl-1H-pyrazol-4-yl)pyridazin-4(1H)-one], the 50% inhibitory concentration (IC50) is less than 100 nM.
Next, `Cn1cc(-n2ccc(=O)c(Cc3cccc(-c4ncc(OCC(O)c5ccncc5)cn4)c3)n2)cn1` (racemic) [Example 367, rac-3-(3-{5-[2-hydroxy-2-(pyridin-4-yl)ethoxy]pyrimidin-2-yl}benzyl)-1-(1-methyl-1H-pyrazol-4-yl)pyridazin-4(1H)-one]: less than 100 nM.
Next, `Cn1cc(-n2ccc(=O)c(Cc3cccc(-c4ncc(OCC(O)CN5CCOCC5)cn4)c3)n2)cn1` (racemic) [Example 368, rac-3-{3-[5-(2-hydroxy-3-morpholin-4-ylpropoxy)pyrimidin-2-yl]benzyl}-1-(1-methyl-1H-pyrazol-4-yl)pyridazin-4(1H)-one]: less than 100 nM.
Next, `Cn1cc(-n2ccc(=O)c(Cc3cccc(-c4ncc(OCC(O)CF)cn4)c3)n2)cn1` (racemic) [Example 369, rac-3-{3-[5-(3-fluoro-2-hydroxypropoxy)pyrimidin-2-yl]benzyl}-1-(1-methyl-1H-pyrazol-4-yl)pyridazin-4(1H)-one]: less than 100 nM; `CCOCC(O)COc1cnc(-c2cccc(Cc3nn(-c4cnn(C)c4)ccc3=O)c2)nc1` (racemic) [Example 370, rac-3-{3-[5-(3-ethoxy-2-hydroxypropoxy)pyrimidin-2-yl]benzyl}-1-(1-methyl-1H-pyrazol-4-yl)pyridazin-4(1H)-one]: less than 100 nM.
For the compound `Cn1cc(-n2ccc(=O)c(Cc3cccc(-c4ncc(OCC(F)c5ccncc5)cn4)c3)n2)cn1` (racemic) [Example 389, rac-3-(3-{5-[2-fluoro-2-(pyridin-4-yl)ethoxy]pyrimidin-2-yl}benzyl)-1-(1-methyl-1H-pyrazol-4-yl)pyridazin-4(1H)-one], the IC50 was less than 100 nM.
Next, `Cn1cc(-n2ccc(=O)c(Cc3cccc(-c4ncc(O[C@@H]5COC[C@@H]5F)cn4)c3)n2)cn1` (racemic) [Example 390, rac-3-(3-{5-[(cis-4-fluorotetra-hydrofuran-3-yl}oxy]pyrimidin-2-yl}benzyl)-1-(1-methyl-1H-pyrazol-4-yl)pyridazin-4(1H)-one]: less than 100 nM; `CCC(C)c1cnc(-c2cccc(Cc3nn(-c4cnn(C)c4)ccc3=O)c2)nc1` (racemic) [Example 408, rac-3-{3-[5-(Butan-2-yl)pyrimidin-2-yl]benzyl}-1-(1-methyl-1H-pyrazol-4-yl)pyridazin-4(1-1)-one]: less than 100 nM.
As to `Cn1cc(-n2ccc(=O)c(Cc3cccc(-c4ncc(CN5CCC(F)C5)cn4)c3)n2)cn1` (racemic) [Example 431, rac-3-(3-{5-[(3-fluoropyrrolidin-1-yl)methyl]pyrimidin-2-yl}benzyl)-1-(1-methyl-1H-pyrazol-4-yl)pyridazin-4(1H)-one], the IC50 is less than 100 nM.
For the compound `Cn1cc(-n2ccc(=O)c(Cc3cccc(-c4ncc(N5CCC(O)C5)cn4)c3)n2)cn1` (racemic) [Example 440, rac-3-{3-[5-(3-Hydroxypyrrolidin-1-yl)pyrimidin-2-yl]benzyl}-1-(1-methy 1H-pyrazol-4-yl)pyridazin-4(1H)-one], the half-maximal inhibitory concentration (IC50) was less than 100 nM.
Take `Cn1cc(-n2ccc(=O)c(Cc3cccc(-c4ncc(N5CCCC(C#N)C5)cn4)c3)n2)cn1` (racemic) [Example 446, rac-1-[2-(3-{[1-(1-methyl-1H-pyrazol-4-yl)-4-oxo-1,4-dihydropyridazin-3-yl]methyl}phenyl)pyrimidin-5-yl]piperidine-3-carbonitrile]: the IC50 is less than 100 nM.
For the compound `COCC1CCCN(c2cnc(-c3cccc(Cc4nn(-c5cnn(C)c5)ccc4=O)c3)nc2)C1` (racemic) [Example 449, rac-3-(3-{5-[3-(methoxymethyl)piperidin-1-yl]pyrimidin-2-yl}benzyl)-1-(1-methyl-1H-pyrazol-4-yl)pyridazin-4(1H)-one], the IC50 was less than 100 nM.
With `CC1COCCN1c1cnc(-c2cccc(Cc3nn(-c4cnn(C)c4)ccc3=O)c2)nc1` (racemic) [Example 450, rac-3-{3-[5-(3-methylmorpholin-4-yl)pyrimidin-2-yl]benzyl}-1-(1-methyl-1H-pyrazol-4-yl)pyridazin-4(1H)-one], the IC50 was less than 100 nM.
Next, `Cn1cc(-n2ccc(=O)c(Cc3cccc(-c4ncc(NCC5CCOC5)cn4)c3)n2)cn1` (racemic) [Example 455, rac-1-(1-methyl-1H-pyrazol-4-yl)-3-(3-{5-[(tetrahydro-furan-3-ylmethyl)amino]pyrimidin-2-yl}benzyl)pyridazin-4(1H)-one]: less than 100 nM; `Cn1cc(-n2ccc(=O)c(Cc3cccc(-c4ncc(NC(=O)C5CCCO5)cn4)c3)n2)cn1` (racemic) [Example 462, rac-N-[2-(3-{[1-(1-methyl-1H-pyrazol-4-yl)-4-oxo-1,4-dihydro-pyridazin-3-yl}methyl}phenyl)pyrimidin-5-yl]tetra-hydrofuran-2-carboxamide]: less than 100 nM; `Cn1cc(-n2ccc(=O)c(Cc3cccc(-c4ncc(NC(=O)CC5CCCO5)cn4)c3)n2)cn1` (racemic) [Example 464, rac-N-[2-(3-{[1-(1-methyl-1H-pyrazol-4-yl)-4-oxo-1,4-dihydro-pyridazin-3-yl]methyl}phenyl)pyrimidin-5-yl]-2-(tetrahydro-furan-2-yl)acetamide]: 100 to 1000 nM.
`Cn1cc(-n2ccc(=O)c(Cc3cccc(-c4ncc(N5CCCC(F)C5)cn4)c3)n2)cn1` (racemic) [Example 468, rac-3-{3-[5-(3-fluoro-piperidin-1-yl)pyrimidin-2-yl]benzyl)-1-(1-methyl-1H-pyrazol-4-yl)pyridazin-4(1H)-one]: the IC50 is less than 100 nM.
Next, `CC1CCCN(c2cnc(-c3cccc(Cc4nn(-c5cnn(C)c5)ccc4=O)c3)nc2)C1` (racemic) [Example 469, rac-3-{3-[5-(3-methyl-piperidin-1-yl)pyrimidin-2-yl]benzyl}-1-(1-methyl-1H-pyrazol-4-yl)pyridazin-4(1H)-one]: less than 100 nM; `Cn1cc(-n2ccc(=O)c(Cc3cccc(-c4ncc(C(=O)NCC5COCCO5)cn4)c3)n2)cn1` (racemic) [Example 474, rac-N-(1,4-Dioxan-2-ylmethyl)-2-(3-{[1-(1-methyl-1H-pyrazol-4-yl)-4-oxo-1,4-dihydropyridazin-3-yl]methyl}phenyl)pyrimidine-5-carboxamide]: less than 100 nM.
Next, `Cn1cc(-n2ccc(=O)c(Cc3cccc(-c4ncc(C(=O)NCC5CCOC5)cn4)c3)n2)cn1` (racemic) [Example 475, rac-2-(3-{[1-(1-methyl-1H-pyrazol-4-yl) 4-oxo-1,4-dihydro-pyridazin-3-yl]methyl}phenyl)-N-(tetrahydro-furan-3-ylmethyl)pyrimidine-5-carboxamide]: less than 100 nM.
For the compound `Cn1cc(-n2ccc(=O)c(Cc3cccc(-c4ncc(C(=O)NCC5COCCO5)cn4)c3)n2)cn1` (racemic) [Example 476, rac-N-(1,4-dioxan-2-ylmethyl)-2-(3-{[1-(1-methyl-1H-pyrazol-4-yl)-4-oxo-1,4-dihydro-pyridazin-3-yl]methyl}phenyl)pyrimidine-5-carboxamide], the half-inhibitory concentration (IC50) is less than 100 nM.
